The target of assay [1] is T1, Serine/threonine-protein kinase BRSK1 (Homo sapiens) (UniProt Q8TDC3).
T1 sequence (whole entry): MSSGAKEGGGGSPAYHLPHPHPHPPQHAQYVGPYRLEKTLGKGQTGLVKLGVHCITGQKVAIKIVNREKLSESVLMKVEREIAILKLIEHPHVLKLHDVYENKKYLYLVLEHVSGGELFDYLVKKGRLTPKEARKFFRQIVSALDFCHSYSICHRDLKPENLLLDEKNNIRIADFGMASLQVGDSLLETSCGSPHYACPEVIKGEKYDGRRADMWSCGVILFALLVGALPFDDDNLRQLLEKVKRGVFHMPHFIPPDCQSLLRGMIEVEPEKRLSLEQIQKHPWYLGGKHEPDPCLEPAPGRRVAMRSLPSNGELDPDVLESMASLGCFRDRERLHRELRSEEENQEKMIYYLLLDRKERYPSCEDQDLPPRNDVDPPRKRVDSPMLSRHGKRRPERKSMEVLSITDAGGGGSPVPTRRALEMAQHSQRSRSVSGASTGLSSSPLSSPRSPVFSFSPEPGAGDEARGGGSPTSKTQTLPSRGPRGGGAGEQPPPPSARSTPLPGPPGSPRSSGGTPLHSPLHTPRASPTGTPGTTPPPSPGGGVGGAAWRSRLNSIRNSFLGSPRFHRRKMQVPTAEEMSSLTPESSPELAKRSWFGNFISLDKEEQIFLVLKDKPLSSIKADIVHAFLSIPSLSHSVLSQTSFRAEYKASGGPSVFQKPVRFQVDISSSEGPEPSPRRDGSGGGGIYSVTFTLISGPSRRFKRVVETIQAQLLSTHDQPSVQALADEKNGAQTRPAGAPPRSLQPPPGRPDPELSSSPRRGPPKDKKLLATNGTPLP
Description: Selectivity interaction (Upstate Kinase Profiler service (Millipore)) EUB0000056c BRSK1. Conditions: at 1 µM.

For assay [2], the target named is Casein kinase I isoform gamma-2 (Homo sapiens) (UniProt P78368). The experiment in a line: Selectivity interaction (Ambit KINOMEscan and KiNATiv profiling in Jurkat cells) EUB0000090b CSNK1G2. Format: cell-based. Conditions: at 1 µM.
Assay [3] concerns the target Death-associated protein kinase 2 (Homo sapiens) (UniProt Q9UIK4). Conditions: at 10 µM.
Assay [4] concerns the target Serine/threonine-protein kinase 24 (Homo sapiens) (UniProt Q9Y6E0). The experiment in a line: Selectivity interaction (KinomeScan (DiscoverX)) EUB0000045b STK24.
Assay [5] concerns the target Serine/threonine-protein kinase MARK1 (Homo sapiens) (UniProt Q9P0L2). Description: Selectivity interaction (KinomeScan (DiscoverX)) EUB0000607a MARK1. Conditions: at 10 µM.
Assay [6] has as its target T2, Serine/threonine-protein kinase Nek9 (Homo sapiens) (UniProt Q8TD19).
T2 sequence (whole entry): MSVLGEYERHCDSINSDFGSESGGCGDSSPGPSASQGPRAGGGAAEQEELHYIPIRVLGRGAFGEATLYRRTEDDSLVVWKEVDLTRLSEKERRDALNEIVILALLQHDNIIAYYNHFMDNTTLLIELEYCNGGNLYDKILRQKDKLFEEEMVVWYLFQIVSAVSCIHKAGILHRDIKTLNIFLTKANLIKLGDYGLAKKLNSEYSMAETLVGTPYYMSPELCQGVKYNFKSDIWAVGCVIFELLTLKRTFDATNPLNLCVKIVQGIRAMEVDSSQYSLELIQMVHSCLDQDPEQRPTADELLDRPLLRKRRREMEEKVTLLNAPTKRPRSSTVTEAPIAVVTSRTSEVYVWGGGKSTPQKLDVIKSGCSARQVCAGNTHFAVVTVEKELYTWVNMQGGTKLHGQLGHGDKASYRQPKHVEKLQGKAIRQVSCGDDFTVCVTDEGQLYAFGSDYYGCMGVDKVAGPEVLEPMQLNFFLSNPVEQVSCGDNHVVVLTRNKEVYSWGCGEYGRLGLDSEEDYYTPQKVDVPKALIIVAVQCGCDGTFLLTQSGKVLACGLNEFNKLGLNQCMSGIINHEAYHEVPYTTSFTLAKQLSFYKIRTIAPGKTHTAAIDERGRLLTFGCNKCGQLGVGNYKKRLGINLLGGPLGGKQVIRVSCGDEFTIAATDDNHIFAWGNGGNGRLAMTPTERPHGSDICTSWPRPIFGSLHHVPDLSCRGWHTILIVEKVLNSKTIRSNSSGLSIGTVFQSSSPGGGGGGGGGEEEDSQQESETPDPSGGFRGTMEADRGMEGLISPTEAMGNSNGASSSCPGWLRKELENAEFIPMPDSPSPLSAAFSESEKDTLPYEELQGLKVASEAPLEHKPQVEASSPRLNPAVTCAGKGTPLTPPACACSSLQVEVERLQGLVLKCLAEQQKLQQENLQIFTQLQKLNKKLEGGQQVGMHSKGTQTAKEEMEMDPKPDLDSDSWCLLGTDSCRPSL
Description: Selectivity interaction (KinomeScan (DiscoverX)) EUB0000229b NEK9. The settings on record: at 10 µM.

Assay [7] has as its target T3, Muscarinic acetylcholine receptor M1 (Homo sapiens) (UniProt P11229).
T3 sequence (whole entry): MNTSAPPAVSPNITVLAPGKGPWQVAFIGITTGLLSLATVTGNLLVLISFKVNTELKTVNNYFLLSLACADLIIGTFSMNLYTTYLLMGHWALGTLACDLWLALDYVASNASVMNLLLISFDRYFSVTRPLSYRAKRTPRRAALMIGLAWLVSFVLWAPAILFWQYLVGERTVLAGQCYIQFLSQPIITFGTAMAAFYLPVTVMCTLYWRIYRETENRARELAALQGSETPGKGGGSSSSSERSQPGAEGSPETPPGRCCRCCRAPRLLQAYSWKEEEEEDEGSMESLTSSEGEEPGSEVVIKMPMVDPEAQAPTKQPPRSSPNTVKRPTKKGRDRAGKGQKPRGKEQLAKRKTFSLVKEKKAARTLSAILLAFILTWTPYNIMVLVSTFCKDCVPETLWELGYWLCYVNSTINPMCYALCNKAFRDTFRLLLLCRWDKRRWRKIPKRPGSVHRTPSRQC
Description: Selectivity interaction (Safety Panel 44tm (Eurofins)) EUB0000162b CHRM1. Conditions: at 10 µM.

Serine/threonine-protein kinase 24 (Homo sapiens), sequence (Q9Y6E0 whole entry, looked up): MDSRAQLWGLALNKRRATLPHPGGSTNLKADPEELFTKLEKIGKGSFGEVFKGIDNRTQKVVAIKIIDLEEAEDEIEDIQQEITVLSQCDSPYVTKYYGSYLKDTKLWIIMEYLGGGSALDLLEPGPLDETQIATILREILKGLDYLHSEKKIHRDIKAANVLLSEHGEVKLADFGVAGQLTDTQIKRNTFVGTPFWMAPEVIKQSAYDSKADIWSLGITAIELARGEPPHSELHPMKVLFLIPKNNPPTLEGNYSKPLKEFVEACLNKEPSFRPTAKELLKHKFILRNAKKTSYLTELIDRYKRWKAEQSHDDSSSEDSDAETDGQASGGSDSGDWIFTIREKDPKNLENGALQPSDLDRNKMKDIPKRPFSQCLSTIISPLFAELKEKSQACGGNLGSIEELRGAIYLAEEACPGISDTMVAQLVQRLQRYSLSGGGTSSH
Casein kinase I isoform gamma-2 (Homo sapiens), sequence (P78368 whole entry, looked up, canonical isoform): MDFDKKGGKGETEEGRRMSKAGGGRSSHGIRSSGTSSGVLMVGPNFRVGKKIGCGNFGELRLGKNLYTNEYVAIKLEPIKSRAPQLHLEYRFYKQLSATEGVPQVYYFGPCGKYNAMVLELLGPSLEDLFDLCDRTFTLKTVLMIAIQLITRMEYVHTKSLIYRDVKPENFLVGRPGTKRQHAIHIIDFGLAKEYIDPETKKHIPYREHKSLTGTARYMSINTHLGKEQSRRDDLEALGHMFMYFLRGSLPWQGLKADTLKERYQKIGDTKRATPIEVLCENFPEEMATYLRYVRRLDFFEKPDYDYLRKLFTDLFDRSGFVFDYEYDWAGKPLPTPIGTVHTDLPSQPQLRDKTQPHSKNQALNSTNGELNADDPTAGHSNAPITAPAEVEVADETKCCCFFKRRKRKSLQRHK
Serine/threonine-protein kinase MARK1 (Homo sapiens), sequence (Q9P0L2 whole entry, looked up): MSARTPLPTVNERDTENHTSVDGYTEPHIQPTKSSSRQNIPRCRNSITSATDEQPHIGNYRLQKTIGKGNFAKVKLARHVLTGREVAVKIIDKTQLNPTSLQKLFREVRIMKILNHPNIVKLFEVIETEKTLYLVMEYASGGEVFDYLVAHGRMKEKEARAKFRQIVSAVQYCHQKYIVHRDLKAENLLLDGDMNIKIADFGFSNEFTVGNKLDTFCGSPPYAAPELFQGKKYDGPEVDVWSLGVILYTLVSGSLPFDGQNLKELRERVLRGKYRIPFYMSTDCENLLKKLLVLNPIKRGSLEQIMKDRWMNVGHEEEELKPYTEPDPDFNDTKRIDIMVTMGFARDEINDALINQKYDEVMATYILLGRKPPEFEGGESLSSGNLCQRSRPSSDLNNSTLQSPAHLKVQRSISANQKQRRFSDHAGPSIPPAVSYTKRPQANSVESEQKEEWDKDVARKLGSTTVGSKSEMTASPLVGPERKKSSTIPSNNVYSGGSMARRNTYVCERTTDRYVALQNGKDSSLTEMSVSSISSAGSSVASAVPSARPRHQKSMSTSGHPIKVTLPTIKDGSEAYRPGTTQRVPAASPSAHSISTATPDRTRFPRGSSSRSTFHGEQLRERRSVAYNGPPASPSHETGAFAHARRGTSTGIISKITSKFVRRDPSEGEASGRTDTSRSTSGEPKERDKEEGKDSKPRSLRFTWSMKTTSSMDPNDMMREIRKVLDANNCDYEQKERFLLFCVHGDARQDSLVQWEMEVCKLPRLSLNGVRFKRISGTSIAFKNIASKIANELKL
Death-associated protein kinase 2 (Homo sapiens), sequence (Q9UIK4 whole entry, looked up): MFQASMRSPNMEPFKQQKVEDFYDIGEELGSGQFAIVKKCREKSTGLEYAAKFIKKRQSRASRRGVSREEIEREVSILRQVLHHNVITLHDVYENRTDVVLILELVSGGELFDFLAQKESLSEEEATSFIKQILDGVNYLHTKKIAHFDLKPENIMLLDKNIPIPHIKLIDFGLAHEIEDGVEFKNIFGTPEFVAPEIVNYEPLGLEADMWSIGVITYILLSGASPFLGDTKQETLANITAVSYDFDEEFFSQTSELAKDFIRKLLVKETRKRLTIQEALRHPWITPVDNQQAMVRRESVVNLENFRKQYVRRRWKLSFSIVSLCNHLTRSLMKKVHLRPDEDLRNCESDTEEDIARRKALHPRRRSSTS

As to `Cc1ccc(-c2ccc3c(ccc4sc5c(c43)NC[C@@H](C)NC5=O)n2)cn1`, in assay [1], the % of inhibition came out at 80%.
As for `CN(C)C/C=C/C(=O)Nc1ccc(C(=O)N2CCCC(Nc3ncc(Cl)c(-c4c[nH]c5ccccc45)n3)C2)cc1` (stereo not drawn), the % of control in assay [2] is 98%.
In assay [3], `CCN(CC)CCCCNc1ncc2cc(-c3cc(OC)cc(OC)c3)c(NC(=O)NC(C)(C)C)nc2n1` registered a % of control of 100%.
On to `C=CC(=O)Nc1cc(-n2c(=O)ccc3cnc4ccc(-c5ccc(NS(C)(=O)=O)cc5)cc4c32)ccc1C`, for which the % of control is 100% in assay [4] (at 1 µM) and 93% in assay [4] (at 10 µM).
On to `CNC(=O)Nc1ccc(-c2nc(N3CC4CCC(C3)O4)c3cnn(C4CCC5(CC4)OCCO5)c3n2)cc1`, for which the % of control in assay [5] came to 100%.
On to `COc1cc(N(C)c2ccnc3ccc(C(F)(F)F)cc23)cc(OC)c1OC`, for which the % binding in assay [6] is 93%.
In assay [7], `CN(C)C(=O)Cn1cc(-c2ccc(-c3cncc4ccccc34)cc2)cn1` showed a % of control of 87%.

The record behind these values is ChEMBL document CHEMBL5465560, “Selectivity Literature for EUbOPEN Chemogenomic Library” (2024).
